Data reported in US20200393446A1, “BIOLUMINESCENT SCREENING TEST FOR DETECTING CELL CYTOLYSIS” (Centre National de la Recherche Scientifique (CNRS), priority 2017, published 2020).

What was measured:
NK cells = assay: NK cell cytotoxicity assay: NanoLuc release from K562-NanoLuc cells co-cultured with compound-treated PBMC; assay type: cell-based, human; settings: PBMCs incubated 16 hours with Clobenpropit, 400,000 PBMCs/16,000 K562-NanoLuc, four hours of co-culture, FIG. 3B
Experimental: PBMC from healthy donors were incubated overnight in the absence or presence of compounds to be tested. Unless specified otherwise, PBMC were plated in 96-well round-bottom plates at a concentration of 400,000 cells/well in a final volume of 100 μL. After 16 hours, 16.000 K562-NanoLuc or twINNE cells were added to cultures wells (100 μL of cell suspension at 160,000 cells/ml). Total volume in culture wells was 200 μL, and plates were centrifuged briefly for 2 min at 1,200 rpm. Unless specified otherwise, 20 μL of culture supernatants were collected and NanoLuc activity was determined by adding 40 μL of RPMI-1640 and 30 μL of NanoLuc reagent (Promega) in black, flat-bottom, 96½-well plates. Bioluminescence was measured during 0.1 s with a luminometer (Enspire; Perkin Elmer).

K562-NanoLuc cells = assay: Lysis of K562-NanoLuc cells by detergent, NanoLuc activity in supernatant; assay type: cell-based, human; settings: cells contacted with detergent, FIG. 1A

Row | Compound | cytolytic activity of NK cells (NanoLuc activity in supernatant) (NK cells) | activity of the NanoLuc enzyme in the supernatant of K562-NanoLuc cells (K562-NanoLuc cells)
1 | NC(=NCc1ccc(Cl)cc1)SCCCc1cnc[nH]1 [Clobenpropit] | completely inhibited | –
2 | NP40 | – | increased
